Experimental data taken from PubChem BioAssay AID248 (DTP/NCI, 2004).
Values joined by “and” are separate entries in the source; they are usually repeats but may differ in a detail not shown here. Identical values can stand only once. Toxic doses and inconclusive results are not listed.

Test system: L1210 leukemia ip in BDF1 mice, survival T/C
Experiment: NCI In Vivo Anticancer Drug Screen. Data for tumor model L1210 Leukemia (intraperitoneal) in B6D2F1 (BDF1) mice
Details: endpoint: mean survival time, higher = longer survival
Outline: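 Transplantable tumor model; survival measured in treated vs vehicle control mice. Value = treated/control.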

[1] = dose: 100.0 mg/kg/injection, schedule: Q01DX001 (ip), vehicle: saline
[2] = dose: 100.0 mg/kg/injection, schedule: Q04DX003 (ip), vehicle: saline
[3] = dose: 200.0 mg/kg/injection, schedule: Q01DX001 (ip), vehicle: saline
[4] = dose: 200.0 mg/kg/injection, schedule: Q04DX003 (ip), vehicle: saline
[5] = dose: 400.0 mg/kg/injection, schedule: Q01DX001 (ip), vehicle: saline
[6] = dose: 400.0 mg/kg/injection, schedule: Q04DX003 (ip), vehicle: saline
[7] = dose: 100.0 mg/kg/injection, schedule: Q01DX009 (ip), vehicle: saline with Tween-80
[8] = dose: 100.0 mg/kg/injection, schedule: Q04DX002 (ip), vehicle: Klucel (hydroxypropylcellulose) (HPC)
[9] = dose: 200.0 mg/kg/injection, schedule: Q01DX009 (ip), vehicle: saline with Tween-80
[10] = dose: 200.0 mg/kg/injection, schedule: Q04DX002 (ip), vehicle: Klucel (hydroxypropylcellulose) (HPC)
[11] = dose: 400.0 mg/kg/injection, schedule: Q04DX002 (ip), vehicle: Klucel (hydroxypropylcellulose) (HPC)
[12] = dose: 100.0 mg/kg/injection, schedule: Q04DX002 (ip), vehicle: saline with Tween-80
[13] = dose: 200.0 mg/kg/injection, schedule: Q04DX002 (ip), vehicle: saline with Tween-80
[14] = dose: 400.0 mg/kg/injection, schedule: Q04DX002 (ip), vehicle: saline with Tween-80

Q: With `NC1C2C(CC(=O)O)OCC=C3CN4CCC1(C(=O)C(=O)O)C4CC32` (stereo not drawn) as the compound, how does the T/C (dose: 0.5 mg/kg/injection, schedule: Q01DX001 (ip), vehicle: saline) read?
A: 101 % of control

Q: And the T/C (dose: 1.0 mg/kg/injection, schedule: Q01DX001 (ip), vehicle: saline)?
A: 101 % of control

Q: And the T/C (dose: 2.0 mg/kg/injection, schedule: Q01DX001 (ip), vehicle: saline)?
A: 102 % of control

Q: What about the T/C (dose: 4.0 mg/kg/injection, schedule: Q01DX001 (ip), vehicle: saline) of the same compound?
A: 106 % of control

Q: How did the T/C (dose: 100.0 mg/kg/injection, schedule: Q04DX003 (ip), vehicle: Klucel (hydroxypropylcellulose) (HPC)) turn out when `CCc1[nH]c(=S)ncc1-c1ccc([N+](=O)[O-])cc1O` was run?
A: 93 % of control

Q: What about the T/C (dose: 200.0 mg/kg/injection, schedule: Q04DX003 (ip), vehicle: Klucel (hydroxypropylcellulose) (HPC)) of the same compound?
A: 93 % of control

Q: What about the T/C (dose: 400.0 mg/kg/injection, schedule: Q04DX003 (ip), vehicle: Klucel (hydroxypropylcellulose) (HPC)) of the same compound?
A: 106 % of control

Q: How did the T/C (dose: 100.0 mg/kg/injection, schedule: Q04DX003 (ip), vehicle: carboxymethylcellulose (CMC)) turn out when `Cc1ccccc1Nc1n[nH]c(=O)n1-c1ccccc1C` was run?
A: 98 % of control

Q: And the T/C (dose: 200.0 mg/kg/injection, schedule: Q04DX003 (ip), vehicle: carboxymethylcellulose (CMC))?
A: 90 % of control

Q: What about the T/C (dose: 400.0 mg/kg/injection, schedule: Q04DX003 (ip), vehicle: carboxymethylcellulose (CMC)) of the same compound?
A: 106 % of control

Q: With `CS(N)(=O)=O` as the compound, how does the T/C (dose: 12.5 mg/kg/injection, schedule: Q04DX002 (ip), vehicle: saline) read?
A: 111 % of control

Q: What about the T/C (dose: 25.0 mg/kg/injection, schedule: Q04DX002 (ip), vehicle: saline) of the same compound?
A: 96 % of control

Q: What about the T/C (dose: 50.0 mg/kg/injection, schedule: Q04DX002 (ip), vehicle: saline) of the same compound?
A: 96 % of control

Q: For `CCOC(=O)/C(O)=C\c1cc(Br)c(OC)cc1[N+](=O)[O-]`, which T/C [1] is on record?
A: 102 % of control

Q: And the T/C [2]?
A: 98 % of control

Q: What about the T/C [3] of the same compound?
A: 107 % of control

Q: What about the T/C [4] of the same compound?
A: 98 % of control

Q: What about the T/C [5] of the same compound?
A: 95 % of control

Q: And the T/C [6]?
A: 95 % of control

Q: What does the source list for `COc1ccc(/C=C2\N=C(c3cccc(Cl)c3)OC2=O)cc1OC`?
A: T/C [7]: 105 % of control; T/C [8]: 89 % of control; T/C [9]: 97 % of control; T/C [10]: 92 % of control; T/C (dose: 400.0 mg/kg/injection, schedule: Q01DX009 (ip), vehicle: saline with Tween-80): 105 % of control; T/C [11]: 86 % of control

Q: `Cc1ccccc1N=P(c1ccccc1)(c1ccccc1)c1ccccc1` was tested. Which T/C (dose: 100.0 mg/kg/injection, schedule: Q01DX009 (ip), vehicle: gum acacia) did it give?
A: 100 % of control

Q: And the T/C (dose: 100.0 mg/kg/injection, schedule: Q04DX003 (ip), vehicle: gum acacia)?
A: 93 % of control

Q: What about the T/C (dose: 200.0 mg/kg/injection, schedule: Q01DX009 (ip), vehicle: gum acacia) of the same compound?
A: 102 % of control

Q: And the T/C (dose: 200.0 mg/kg/injection, schedule: Q04DX003 (ip), vehicle: gum acacia)?
A: 90 % of control

Q: What about the T/C (dose: 400.0 mg/kg/injection, schedule: Q04DX003 (ip), vehicle: gum acacia) of the same compound?
A: 93 % of control

Q: Which T/C [12] does the source give for `CCCS(=O)(=O)N(CC)CC` here?
A: 97 % of control

Q: And the T/C [13]?
A: 101 % of control

Q: And the T/C [14]?
A: 87 % of control

Q: Which T/C (dose: 100.0 mg/kg/injection, schedule: Q01DX009 (ip), vehicle: saline) does the source give for `OC1COC(O)C(O)C1O` (stereo not drawn) here?
A: 98 % of control

Q: What about the T/C [2] of the same compound?
A: 104 % of control

Q: And the T/C (dose: 200.0 mg/kg/injection, schedule: Q01DX009 (ip), vehicle: saline)?
A: 103 % of control

Q: And the T/C [4]?
A: 111 % of control

Q: And the T/C (dose: 250.0 mg/kg/injection, schedule: Q04DX003 (ip), vehicle: saline)?
A: 93 % of control

Q: What about the T/C (dose: 400.0 mg/kg/injection, schedule: Q01DX009 (ip), vehicle: saline) of the same compound?
A: 104 % of control

Q: What about the T/C [6] of the same compound?
A: 104 % of control

Q: And the T/C (dose: 500.0 mg/kg/injection, schedule: Q04DX003 (ip), vehicle: saline)?
A: 96 % of control

Q: What about the T/C (dose: 1000.0 mg/kg/injection, schedule: Q04DX003 (ip), vehicle: saline) of the same compound?
A: 102 % of control

Q: What about the T/C (dose: 2000.0 mg/kg/injection, schedule: Q04DX003 (ip), vehicle: saline) of the same compound?
A: 91 % of control

Q: What does the source list for `CC(=O)OC1CC2CCC1(S(=O)(=O)O)C2(C)C` (stereo not drawn)?
A: T/C [1]: 107 % of control; T/C [2]: 103 % of control; T/C [3]: 108 % of control; T/C [4]: 103 % of control; T/C [5]: 107 % of control; T/C [6]: 114 % of control

Q: `CC(=O)OCCCCc1ccccc1` was tested. Which T/C (dose: 50.0 mg/kg/injection, schedule: Q01DX009 (ip), vehicle: saline with Tween-80) did it give?
A: 97 % of control

Q: And the T/C [7]?
A: 97 % of control

Q: What about the T/C [9] of the same compound?
A: 87 % of control

Q: Which results are given for `CN(C)c1ccc(N=C(C#N)C(=O)c2ccccc2)cc1`?
A: T/C (dose: 100.0 mg/kg/injection, schedule: Q04DX003 (ip), vehicle: saline with Tween-80): 95 % of control; T/C (dose: 200.0 mg/kg/injection, schedule: Q04DX003 (ip), vehicle: saline with Tween-80): 95 % of control; T/C (dose: 400.0 mg/kg/injection, schedule: Q04DX003 (ip), vehicle: saline with Tween-80): 102 % of control

Q: How did the T/C (dose: 1.56 mg/kg/injection, schedule: Q01DX009 (ip), vehicle: saline with Tween-80) turn out when `C=C[CH2][Sn]([Br])([c]1ccccc1)[c]1ccccc1` was run?
A: 89 % of control

Q: And the T/C (dose: 3.13 mg/kg/injection, schedule: Q01DX009 (ip), vehicle: saline with Tween-80)?
A: 92 % of control

Q: With `O=C1C(NCCO)=C(N2CC2)C(=O)C(NCCO)=C1N1CC1` as the compound, how does the T/C (dose: 0.04 mg/kg/injection, schedule: Q01DX009 (ip), vehicle: saline) read?
A: 115 % of control

Q: And the T/C (dose: 0.09 mg/kg/injection, schedule: Q01DX009 (ip), vehicle: saline)?
A: 111 % of control

Q: What about the T/C (dose: 0.09 mg/kg/injection, schedule: Q04DX003 (ip), vehicle: saline) of the same compound?
A: 121 % of control

Q: And the T/C (dose: 0.18 mg/kg/injection, schedule: Q01DX009 (ip), vehicle: saline)?
A: 159 % of control and 164 % of control and 195 % of control

Q: What about the T/C (dose: 0.18 mg/kg/injection, schedule: Q04DX003 (ip), vehicle: saline) of the same compound?
A: 120 % of control

Q: What about the T/C (dose: 0.19 mg/kg/injection, schedule: Q01DX009 (ip), vehicle: saline) of the same compound?
A: 153 % of control

Q: And the T/C (dose: 0.37 mg/kg/injection, schedule: Q01DX001 (ip), vehicle: saline)?
A: 103 % of control

Q: What about the T/C (dose: 0.37 mg/kg/injection, schedule: Q01DX009 (ip), vehicle: saline) of the same compound?
A: 157 % of control and 164 % of control and 212 % of control

Q: And the T/C (dose: 0.37 mg/kg/injection, schedule: Q04DX003 (ip), vehicle: saline)?
A: 155 % of control and 157 % of control

Q: What about the T/C (dose: 0.38 mg/kg/injection, schedule: Q01DX009 (ip), vehicle: saline) of the same compound?
A: 184 % of control

Q: What about the T/C (dose: 0.75 mg/kg/injection, schedule: Q04DX003 (ip), vehicle: saline) of the same compound?
A: 170 % of control and 231 % of control

Q: What about the T/C (dose: 1.5 mg/kg/injection, schedule: Q01DX001 (ip), vehicle: saline) of the same compound?
A: 275 % of control

Q: What about the T/C (dose: 1.5 mg/kg/injection, schedule: Q04DX003 (ip), vehicle: saline) of the same compound?
A: 160 % of control and 164 % of control and 186 % of control

Q: What about the T/C (dose: 1.56 mg/kg/injection, schedule: Q04DX003 (ip), vehicle: saline) of the same compound?
A: 103 % of control

Q: What about the T/C (dose: 3.0 mg/kg/injection, schedule: Q04DX003 (ip), vehicle: saline) of the same compound?
A: 104 % of control and 115 % of control

Q: What does the source list for `Cc1cccnc1OCC(=O)O`?
A: T/C [8]: 101 % of control; T/C [10]: 104 % of control; T/C [11]: 93 % of control

Q: Which T/C (dose: 100.0 mg/kg/injection, schedule: Q04DX002 (ip), vehicle: gum acacia) does the source give for `Clc1ccc([S][Pb]([c]2ccccc2)([c]2ccccc2)[c]2ccccc2)cc1` here?
A: 88 % of control

Q: And the T/C (dose: 200.0 mg/kg/injection, schedule: Q04DX002 (ip), vehicle: gum acacia)?
A: 91 % of control

Q: Which T/C (dose: 10.0 mg/kg/injection, schedule: Q01DX001 (ip), vehicle: saline) does the source give for `CC1CN(Cl)C(=O)N(Cl)C1=O` (stereo not drawn) here?
A: 96 % of control

Q: And the T/C (dose: 20.0 mg/kg/injection, schedule: Q01DX001 (ip), vehicle: saline)?
A: 98 % of control

Q: What about the T/C (dose: 40.0 mg/kg/injection, schedule: Q01DX001 (ip), vehicle: saline) of the same compound?
A: 92 % of control

Q: What does the source list for `Cc1ccc(NC(=O)N(C)CCC#N)cc1`?
A: T/C [12]: 97 % of control; T/C [13]: 94 % of control; T/C [14]: 87 % of control

Q: `Nc1ccc2c(c1)CCC2=O` was tested. Which T/C [12] did it give?
A: 98 % of control

Q: And the T/C [13]?
A: 102 % of control

Q: And the T/C [14]?
A: 90 % of control

Q: `COC(=O)CCNC(=O)C1CSC(C)(C)N1C=O` (stereo not drawn) was tested. Which T/C [2] did it give?
A: 97 % of control

Q: What about the T/C [4] of the same compound?
A: 97 % of control

Q: And the T/C [6]?
A: 90 % of control

Q: With `Cc1ccc(C(=O)c2ccc(Cl)cc2)cc1` as the compound, how does the T/C (dose: 50.0 mg/kg/injection, schedule: Q01DX001 (ip), vehicle: saline) read?
A: 90 % of control

Q: And the T/C [1]?
A: 98 % of control

Q: And the T/C [3]?
A: 102 % of control

Q: And the T/C [5]?
A: 96 % of control
